Results as given in patent US6737383B1, “Herbicidal oxadiazolidines” (priority 1999, dated 2004).

Key:
rape = assay: Test B pre/postemergence rape; type: in vivo, Brassica napus
How it was run: (§1)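 Test chemicals in a non-phytotoxic solvent mixture with surfactant were sprayed preemergence onto planted seeds and postemergence onto plants 2 to 18 cm tall (1- to 4-leaf stage). After twelve to sixteen days in a greenhouse, injury was visually rated against untreated controls from 0 (no effect) to 10 (complete control).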

surinam grass = assay: Test B pre/postemergence surinam grass; type: in vivo, Brachiaria decumbens; conditions: Postemergence
How it was run: as §1

morningglory = assay: Test B pre/postemergence morningglory; type: in vivo, Ipomoea hederacea
How it was run: as §1

velvetleaf = assay: Test B pre/postemergence velvetleaf; type: in vivo, Abutilon theophrasti
How it was run: as §1

pigweed = assay: Test B pre/postemergence pigweed; type: in vivo, Amaranthus retroflexus
How it was run: as §1

wheat = assay: Test B pre/postemergence wheat; type: in vivo, Triticum aestivum
How it was run: as §1

cocklebur = assay: Test B pre/postemergence cocklebur; type: in vivo, Xanthium strumarium
How it was run: as §1

purple nutsedge = assay: Test B pre/postemergence purple nutsedge; type: in vivo, Cyperus rotundus
How it was run: as §1

sugar beet = assay: Test B pre/postemergence sugar beet; type: in vivo, Beta vulgaris
How it was run: as §1

crabgrass = assay: Test B pre/postemergence crabgrass; type: in vivo, Digitaria sanguinalis
How it was run: as §1

giant foxtail = assay: Test B pre/postemergence giant foxtail; type: in vivo, Setaria faberii
How it was run: as §1

soybean = assay: Test B pre/postemergence soybean; type: in vivo, Glycine max
How it was run: as §1

corn = assay: Test B pre/postemergence corn; type: in vivo, Zea mays
How it was run: as §1

blackgrass = assay: Test B pre/postemergence blackgrass; type: in vivo, Alopecurus myosuroides
How it was run: as §1

wild oat = assay: Test B pre/postemergence wild oat; type: in vivo, Avena fatua
How it was run: as §1

bedstraw = assay: Test B pre/postemergence bedstraw; type: in vivo, Galium aparine
How it was run: as §1

[1] = Postemergence, Rate 62 g/ha, scale 0 to 10, 0 is no effect, 10 is complete control
[2] = Postemergence, Rate 125 g/ha, scale of 0 to 10 where 0 is no effect and 10 is complete control
[3] = Preemergence, Rate 125 g/ha, scale of 0 to 10 where 0 is no effect and 10 is complete control
[4] = Preemergence, Rate 250 g/ha, scale 0 (no effect) to 10 (complete control)
[5] = Rate 62 g/ha, Preemergence, scale 0 to 10
[6] = Rate 250 g/ha, Postemergence, scale 0 to 10, 0 is no effect, 10 is complete control
[7] = Rate 500 g/ha, Postemergence, scale 0 to 10, 0 is no effect, 10 is complete control
[8] = Rate 500 g/ha, Preemergence, scale 0 to 10 (0 no effect, 10 complete control)

Question: How did the “Plant response rating, Rape” value (rape; [1]) turn out when `CC(CBr)Cn1c(=O)on(C(=O)N(c2ccc(F)cc2)C(C)C)c1=O` (centres unmarked) [Compound 752] was run?
Answer: 2

Question: And the “Rape plant response rating” value (rape; [2])?
Answer: 2

Question: What about the “Plant response rating, Rape” value (rape; [3]) of the same compound?
Answer: 3

Question: What about the “Rape plant response rating” value (rape; [4]) of the same compound?
Answer: 5

Question: And the “Rape plant response rating” value (rape; [5])?
Answer: 0

Question: And the “Rape plant response rating” value (rape; [6])?
Answer: 4

Question: What about the “Rape plant response rating” value (rape; [7]) of the same compound?
Answer: 4

Question: What about the “Rape plant response rating” value (rape; [8]) of the same compound?
Answer: 5

Question: And the “Plant response rating, B. signalgrass” value (surinam grass; Rate 62 g/ha, scale 0 to 10, 0 is no effect, 10 is complete control)?
Answer: 0

Question: What about the “B. signalgrass plant response rating” value (surinam grass; Rate 125 g/ha, scale of 0 to 10 where 0 is no effect and 10 is complete control) of the same compound?
Answer: 0

Question: And the “B. signalgrass plant response rating” value (surinam grass; Rate 250 g/ha, scale 0 to 10, 0 is no effect, 10 is complete control)?
Answer: 2

Question: And the “B. signalgrass plant response rating” value (surinam grass; Rate 500 g/ha, scale 0 to 10, 0 is no effect, 10 is complete control)?
Answer: 6

Question: And the “Plant response rating, Morningglory” value (morningglory; [1])?
Answer: 2

Question: What about the “Morningglory plant response rating” value (morningglory; [2]) of the same compound?
Answer: 2

Question: And the “Plant response rating, Morningglory” value (morningglory; [3])?
Answer: 0

Question: And the “Morningglory plant response rating” value (morningglory; [4])?
Answer: 0

Question: And the “Morningglory plant response rating” value (morningglory; [5])?
Answer: 0

Question: And the “Morningglory plant response rating” value (morningglory; [6])?
Answer: 8

Question: And the “Morningglory plant response rating” value (morningglory; [7])?
Answer: 9

Question: And the “Morningglory plant response rating” value (morningglory; [8])?
Answer: 0

Question: And the “Plant response rating, Velvetleaf” value (velvetleaf; [1])?
Answer: 0

Question: And the “Plant response rating, Velvetleaf” value (velvetleaf; [3])?
Answer: 0

Question: What about the “Velvetleaf plant response rating” value (velvetleaf; [4]) of the same compound?
Answer: 0

Question: What about the “Velvetleaf plant response rating” value (velvetleaf; [5]) of the same compound?
Answer: 0

Question: What about the “Velvetleaf plant response rating” value (velvetleaf; [6]) of the same compound?
Answer: 2

Question: What about the “Velvetleaf plant response rating” value (velvetleaf; [7]) of the same compound?
Answer: 2

Question: What about the “Velvetleaf plant response rating” value (velvetleaf; [8]) of the same compound?
Answer: 2

Question: What about the “Plant response rating, Redroot pigweed” value (pigweed; [1]) of the same compound?
Answer: 0

Question: What about the “Redroot pigweed plant response rating” value (pigweed; [2]) of the same compound?
Answer: 5

Question: What about the “Plant response rating, Redroot pigweed” value (pigweed; [3]) of the same compound?
Answer: 2

Question: And the “Redroot pigweed plant response rating” value (pigweed; [4])?
Answer: 10

Question: What about the “Redroot pigweed plant response rating” value (pigweed; [5]) of the same compound?
Answer: 0

Question: And the “Redroot pigweed plant response rating” value (pigweed; [6])?
Answer: 5

Question: And the “Redroot pigweed plant response rating” value (pigweed; [7])?
Answer: 9

Question: And the “Redroot pigweed plant response rating” value (pigweed; [8])?
Answer: 10

Question: What about the “Plant response rating, Wheat” value (wheat; [1]) of the same compound?
Answer: 0

Question: What about the “Plant response rating, Wheat” value (wheat; [3]) of the same compound?
Answer: 0

Question: What about the “Wheat plant response rating” value (wheat; [4]) of the same compound?
Answer: 0

Question: And the “Wheat plant response rating” value (wheat; [5])?
Answer: 0

Question: What about the “Wheat plant response rating” value (wheat; [6]) of the same compound?
Answer: 5

Question: And the “Wheat plant response rating” value (wheat; [7])?
Answer: 5

Question: What about the “Wheat plant response rating” value (wheat; [8]) of the same compound?
Answer: 0

Question: And the “Plant response rating, Cocklebur” value (cocklebur; [1])?
Answer: 0

Question: And the “Cocklebur plant response rating” value (cocklebur; [2])?
Answer: 3

Question: And the “Plant response rating, Cocklebur” value (cocklebur; [3])?
Answer: 0

Question: What about the “Cocklebur plant response rating” value (cocklebur; [4]) of the same compound?
Answer: 0

Question: What about the “Cocklebur plant response rating” value (cocklebur; [5]) of the same compound?
Answer: 0

Question: And the “Cocklebur plant response rating” value (cocklebur; [7])?
Answer: 3

Question: And the “Cocklebur plant response rating” value (cocklebur; [8])?
Answer: 0

Question: And the “Plant response rating, Nutsedge” value (purple nutsedge; [1])?
Answer: 0

Question: What about the “Nutsedge plant response rating” value (purple nutsedge; [2]) of the same compound?
Answer: 0

Question: What about the “Plant response rating, Nutsedge” value (purple nutsedge; [3]) of the same compound?
Answer: 0

Question: And the “Nutsedge plant response rating” value (purple nutsedge; [5])?
Answer: 0

Question: What about the “Nutsedge plant response rating” value (purple nutsedge; [6]) of the same compound?
Answer: 0

Question: What about the “Nutsedge plant response rating” value (purple nutsedge; [7]) of the same compound?
Answer: 0

Question: What about the “Nutsedge plant response rating” value (purple nutsedge; [8]) of the same compound?
Answer: 0

Question: What about the “Plant response rating, Sugarbeets” value (sugar beet; [1]) of the same compound?
Answer: 3

Question: And the “Plant response rating, Sugarbeets” value (sugar beet; [3])?
Answer: 0

Question: And the “Sugarbeets plant response rating” value (sugar beet; [4])?
Answer: 3

Question: What about the “Sugarbeets plant response rating” value (sugar beet; [5]) of the same compound?
Answer: 0

Question: And the “Sugarbeets plant response rating” value (sugar beet; [6])?
Answer: 3

Question: What about the “Sugarbeets plant response rating” value (sugar beet; [7]) of the same compound?
Answer: 3

Question: And the “Sugarbeets plant response rating” value (sugar beet; [8])?
Answer: 3

Question: What about the “Plant response rating, Crabgrass” value (crabgrass; [1]) of the same compound?
Answer: 3

Question: What about the “Crabgrass plant response rating” value (crabgrass; [2]) of the same compound?
Answer: 3

Question: And the “Plant response rating, Crabgrass” value (crabgrass; [3])?
Answer: 9

Question: What about the “Crabgrass plant response rating” value (crabgrass; [4]) of the same compound?
Answer: 10

Question: And the “Crabgrass plant response rating” value (crabgrass; [5])?
Answer: 9

Question: And the “Crabgrass plant response rating” value (crabgrass; [6])?
Answer: 8

Question: What about the “Crabgrass plant response rating” value (crabgrass; [7]) of the same compound?
Answer: 10

Question: What about the “Crabgrass plant response rating” value (crabgrass; [8]) of the same compound?
Answer: 10

Question: And the “Giant foxtail plant response rating” value (giant foxtail; [2])?
Answer: 9

Question: And the “Plant response rating, Giant foxtail” value (giant foxtail; [3])?
Answer: 10

Question: And the “Giant foxtail plant response rating” value (giant foxtail; [4])?
Answer: 10

Question: What about the “Giant foxtail plant response rating” value (giant foxtail; [5]) of the same compound?
Answer: 10

Question: And the “Giant foxtail plant response rating” value (giant foxtail; [6])?
Answer: 9

Question: What about the “Giant foxtail plant response rating” value (giant foxtail; [7]) of the same compound?
Answer: 9

Question: What about the “Giant foxtail plant response rating” value (giant foxtail; [8]) of the same compound?
Answer: 10

Question: And the “Plant response rating, Soybean” value (soybean; [1])?
Answer: 4

Question: What about the “Plant response rating, Soybean” value (soybean; [3]) of the same compound?
Answer: 0

Question: What about the “Soybean plant response rating” value (soybean; [4]) of the same compound?
Answer: 0

Question: And the “Soybean plant response rating” value (soybean; [5])?
Answer: 0

Question: What about the “Soybean plant response rating” value (soybean; [6]) of the same compound?
Answer: 6

Question: What about the “Soybean plant response rating” value (soybean; [7]) of the same compound?
Answer: 6

Question: What about the “Soybean plant response rating” value (soybean; [8]) of the same compound?
Answer: 0

Question: What about the “Plant response rating, Corn” value (corn; [1]) of the same compound?
Answer: 0

Question: And the “Corn plant response rating” value (corn; [2])?
Answer: 0

Question: What about the “Plant response rating, Corn” value (corn; [3]) of the same compound?
Answer: 0

Question: And the “Corn plant response rating” value (corn; [4])?
Answer: 0

Question: What about the “Corn plant response rating” value (corn; [5]) of the same compound?
Answer: 0

Question: And the “Corn plant response rating” value (corn; [6])?
Answer: 0

Question: And the “Corn plant response rating” value (corn; [7])?
Answer: 0

Question: What about the “Corn plant response rating” value (corn; [8]) of the same compound?
Answer: 0

Question: What about the “Plant response rating, Blackgrass” value (blackgrass; [1]) of the same compound?
Answer: 0

Question: What about the “Blackgrass plant response rating” value (blackgrass; [2]) of the same compound?
Answer: 2

Question: What about the “Plant response rating, Blackgrass” value (blackgrass; [3]) of the same compound?
Answer: 9

Question: And the “Blackgrass plant response rating” value (blackgrass; [4])?
Answer: 9

Question: And the “Blackgrass plant response rating” value (blackgrass; [5])?
Answer: 4

Question: And the “Blackgrass plant response rating” value (blackgrass; [6])?
Answer: 6

Question: And the “Blackgrass plant response rating” value (blackgrass; [7])?
Answer: 6

Question: And the “Blackgrass plant response rating” value (blackgrass; [8])?
Answer: 10

Question: And the “Plant response rating, Wild oats” value (wild oat; [1])?
Answer: 0

Question: What about the “Plant response rating, Wild oats” value (wild oat; [3]) of the same compound?
Answer: 0

Question: And the “Wild oats plant response rating” value (wild oat; [4])?
Answer: 7

Question: And the “Wild oats plant response rating” value (wild oat; [5])?
Answer: 0

Question: What about the “Wild oats plant response rating” value (wild oat; [6]) of the same compound?
Answer: 0

Question: And the “Wild oats plant response rating” value (wild oat; [7])?
Answer: 0

Question: And the “Wild oats plant response rating” value (wild oat; [8])?
Answer: 8

Question: What about the “Plant response rating, Bedstraw” value (bedstraw; [1]) of the same compound?
Answer: 0

Question: What about the “Bedstraw plant response rating” value (bedstraw; [2]) of the same compound?
Answer: 0

Question: What about the “Plant response rating, Bedstraw” value (bedstraw; [3]) of the same compound?
Answer: 10

Question: What about the “Bedstraw plant response rating” value (bedstraw; [4]) of the same compound?
Answer: 10

Question: What about the “Bedstraw plant response rating” value (bedstraw; [5]) of the same compound?
Answer: 0

Question: And the “Bedstraw plant response rating” value (bedstraw; [6])?
Answer: 2

Question: And the “Bedstraw plant response rating” value (bedstraw; [7])?
Answer: 2

Question: And the “Bedstraw plant response rating” value (bedstraw; [8])?
Answer: 10
